Source: patent US9365562B2, “1,3 substituted azetidine PDE10 inhibitors” (Merck Sharp & Dohme Corp., priority 2011, dated 2016)

Target: human PDE10A2 (Homo sapiens (Human), UniProt Q9Y233)
Experiment: PDE10 fluorescence polarization (IMAP FP) inhibition assay
Format: biochemical
Conditions: apparent inhibition constant, FAM-labeled cAMP substrate 50 nM, room temperature
In short: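 Cytoplasmic lysate of AD293 cells transiently expressing human PDE10A2, enzyme preincubated 60 min at room temperature with compounds (1% DMSO), then 50 nM FAM-cAMP added for 60 min. Buffer 10 mM Tris HCl pH 7.2, 10 mM MgCl2, 1 mM DTT; IMAP binding reagent stop, FP read after ≥1 h.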

human PDE10A2, sequence (Q9Y233 267-1055): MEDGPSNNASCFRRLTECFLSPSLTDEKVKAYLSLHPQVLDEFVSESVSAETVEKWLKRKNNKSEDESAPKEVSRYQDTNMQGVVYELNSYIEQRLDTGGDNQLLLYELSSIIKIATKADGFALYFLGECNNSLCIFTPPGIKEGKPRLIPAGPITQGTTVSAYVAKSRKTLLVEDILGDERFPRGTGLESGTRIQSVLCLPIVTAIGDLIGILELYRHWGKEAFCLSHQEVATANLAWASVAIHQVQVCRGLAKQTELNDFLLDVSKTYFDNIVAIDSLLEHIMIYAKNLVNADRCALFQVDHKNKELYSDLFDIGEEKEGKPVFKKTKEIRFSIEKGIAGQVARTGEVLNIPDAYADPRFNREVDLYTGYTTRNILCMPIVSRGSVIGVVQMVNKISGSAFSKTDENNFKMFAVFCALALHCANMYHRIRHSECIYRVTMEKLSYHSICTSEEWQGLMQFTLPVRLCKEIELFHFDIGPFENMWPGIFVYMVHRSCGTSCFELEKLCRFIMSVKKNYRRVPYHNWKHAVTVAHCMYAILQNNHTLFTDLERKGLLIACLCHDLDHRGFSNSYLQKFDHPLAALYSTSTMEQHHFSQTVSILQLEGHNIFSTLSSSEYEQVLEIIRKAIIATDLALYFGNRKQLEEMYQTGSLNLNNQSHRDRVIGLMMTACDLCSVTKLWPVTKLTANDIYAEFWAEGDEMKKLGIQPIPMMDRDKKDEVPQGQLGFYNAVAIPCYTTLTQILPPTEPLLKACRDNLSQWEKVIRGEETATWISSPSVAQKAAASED

| Ki | Compound |
| --- | --- |
| 22 nM | Cc1nc(N2CC(c3nc4c(C)cccc4n3C)C2)cc(-n2nc(C)nc2C)n1 [Example 124, 2-(1-(6-(3,5-dimethyl-1H-1,2,4-triazol-1-yl)-2-methylpyrimidin-4-yl)azetidin-3-yl)-1,4-dimethyl-1H-benzo[d]imidazole] |
| 37 nM | Cc1nc(N2CC(c3nc4c(C(F)(F)F)cccc4n3C)C2)cc(-n2nc(C)nc2C)n1 [Example 125, 2-(1-(6-(3,5-dimethyl-1H-1,2,4-triazol-1-yl)-2-methylpyrimidin-4-yl)azetidin-3-yl)-1-methyl-4-(trifluoromethyl)-1H-benzo[d]imidazole] |
| 407 nM | Cc1ccc(C2CN(c3cc(-n4nc(C)nc4C)nc(C)n3)C2)nc1 [Example 126, 4-(3,5-Dimethyl-1H-1,2,4-triazol-1-yl)-2-methyl-6-[3-(5-methylpyridin-2-yl)azetidin-1-yl]pyrimidine] |
